The test system of the experiment is SW 1271 complex spheroids, viability. Nature of the experiment: Anticancer human tumor SW 1271 cell line growth inhibition [LSD1].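 For all read-outs here: spheroids exposed to agents for 7 days before luminescence read.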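 For viability, T/C: 100% = DMSO vehicle control viability.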 Conditions: for viability, T/C: stronger effect = lower value. Summed up:
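Complex spheroids of tumor cells with HUVEC and human MSCs, exposed to iadademstat combined with other agents. Each agent tested in half-log steps from near clinical Cmax (else 10 microM top), DMSO ≤0.25%.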

Where [1] appears, read: curve of first compound, second compound 0.1 µM.
[2] abbreviates: curve of first compound, second compound 0.316 µM.
Where [3] appears, read: curve of first compound, second compound 1 µM.
The mark [4] stands for this setting: curve of first compound, second compound 3.16 µM.
Setting [5] is: curve of first compound, second compound 10 µM.
[6] abbreviates: second compound 0.1 µM, first compound 0.00316 µM.
The mark [7] stands for this setting: second compound 0.1 µM, first compound 0.01 µM.
Setting [8] is: second compound 0.1 µM, first compound 0.0316 µM.
Where [9] appears, read: second compound 0.1 µM, first compound 0.1 µM.
Setting [10] is: second compound 0.1 µM, first compound 0.316 µM.
The mark [11] stands for this setting: second compound 0.1 µM, first compound 1 µM.
Where [12] appears, read: second compound 0.316 µM, first compound 0.00316 µM.
The mark [13] stands for this setting: second compound 0.316 µM, first compound 0.01 µM.
Setting [14] is: second compound 0.316 µM, first compound 0.0316 µM.
[15] abbreviates: second compound 0.316 µM, first compound 0.1 µM.
Setting [16] is: second compound 0.316 µM, first compound 0.316 µM.
Where [17] appears, read: second compound 0.316 µM, first compound 1 µM.
Where [18] appears, read: second compound 1 µM, first compound 0.00316 µM.
Where [19] appears, read: second compound 1 µM, first compound 0.01 µM.
[20] abbreviates: second compound 1 µM, first compound 0.0316 µM.
[21] abbreviates: second compound 1 µM, first compound 0.1 µM.
The mark [22] stands for this setting: second compound 1 µM, first compound 0.316 µM.
Setting [23] is: second compound 1 µM, first compound 1 µM.
Where [24] appears, read: second compound 3.16 µM, first compound 0.00316 µM.
[25] abbreviates: second compound 3.16 µM, first compound 0.01 µM.
Setting [26] is: second compound 3.16 µM, first compound 0.0316 µM.
The mark [27] stands for this setting: second compound 3.16 µM, first compound 0.1 µM.
Setting [28] is: second compound 3.16 µM, first compound 0.316 µM.
Where [29] appears, read: second compound 3.16 µM, first compound 1 µM.
[30] abbreviates: second compound 10 µM, first compound 0.00316 µM.
Setting [31] is: second compound 10 µM, first compound 0.01 µM.
Where [32] appears, read: second compound 10 µM, first compound 0.0316 µM.
The mark [33] stands for this setting: second compound 10 µM, first compound 0.1 µM.
[34] abbreviates: second compound 10 µM, first compound 0.316 µM.
Where [35] appears, read: second compound 10 µM, first compound 1 µM.

Where “and” joins values, the source holds several entries; their conditions need not be identical. Equal entries are not always repeated.

As to `CC1COCCN1c1cc(-c2ccnn2C)c2ccnc(-c3ccn[nH]3)c2n1` (centres undefined) + NC1CC1c1ccc(-c2cccc(O)c2)cc1, the IC50 under setting [1] was found to be 48.5 nM; the IC50 under setting [2] is 23.8 nM; the IC50 under setting [3] came out at 37.2 nM; the IC50 under setting [4] is 36.8 nM; the half-inhibitory concentration (IC50) under setting [5] was determined as 31.3 nM. Also, the viability, T/C by setting is: under setting [6], 65.2%; under setting [7], 62.7%; under setting [8], 51.6%; under setting [9], 42.9%; under setting [10], 39.4%; under setting [11], 26.6%. The viability, T/C runs as follows: under setting [12], 55.5%; under setting [13], 55.6%; under setting [14], 49.7%; under setting [15], 40.6%; under setting [16], 39.1%; under setting [17], 31%. Moreover, the viability, T/C by setting is: under setting [18], 63.7%; under setting [19], 51.1%; under setting [20], 55.4%; under setting [21], 46.6%; under setting [22], 30.6%; under setting [23], 28.8%. The viability, T/C reads like this: under setting [24], 58%; under setting [25], 54.3%; under setting [26], 54.7%; under setting [27], 38.2%; under setting [28], 40.2%; under setting [29], 22.6%. The viability, T/C is 67.1% under setting [30]; 51.5% under setting [31]; 50.3% under setting [32]; 41.6% under setting [33]; 40.2% under setting [34]; 24.9% under setting [35].
For `Nc1ncn(C2CC(O)C(CO)S2)c(=O)n1` (centres undefined), the viability, T/C (compound 0.000949 µM) was 105% and 83.6%; the viability, T/C (compound 0.003 µM) was 112% and 88.6%; the viability, T/C (compound 0.00949 µM) is 99.5% and 86.3%; the viability, T/C (compound 0.03 µM) is 108% and 83.2%; the viability, T/C (compound 0.0949 µM) was 94.7% and 91.1%; the viability, T/C (compound 0.3 µM) was 88.5% and 71.2%. Also, the IC50 (curve of compound) was more than 300 nM.
Take `CC1(C)CCC(CN2CCN(c3ccc(C(=O)NS(=O)(=O)c4ccc(NCC5CCOCC5)c([N+](=O)[O-])c4)c(Oc4cnc5[nH]ccc5c4)c3)CC2)=C(c2ccc(Cl)cc2)C1`: the viability, T/C was 93.1% and 103% (compound 0.0316 µM); 97.7% and 112% (compound 0.1 µM); 87.7% and 98.3% (compound 0.316 µM); 101% and 102% (compound 1 µM); 28.1% and 55.8% (compound 3.16 µM); 0.45% and 4.57% (compound 10 µM). Moreover, the IC50 (curve of compound) was 2170 nM and 3600 nM.
Take `CC1COCCN1c1cc(-c2ccnn2C)c2ccnc(-c3ccn[nH]3)c2n1` (centres undefined) + NC1CCC(NC2CC2c2ccccc2)CC1: the IC50 is, setting by setting: under setting [1], 59.5 nM; under setting [2], 103 nM; under setting [3], 55.3 nM; under setting [4], 55.4 nM; under setting [5], 47.3 nM. The viability, T/C under setting [6] is 59.3%; the viability, T/C under setting [7] is 76.7%; the viability, T/C under setting [8] was 56.3%; the viability, T/C under setting [9] was 42.7%; the viability, T/C under setting [10] is 42.2%; the viability, T/C under setting [11] was 29.8%. In addition, the viability, T/C by setting is: under setting [12], 71.4%; under setting [13], 71.2%; under setting [14], 58.2%; under setting [15], 42.7%; under setting [16], 48.8%; under setting [17], 28.6%. The viability, T/C is 68.5% under setting [18]; 62% under setting [19]; 56.2% under setting [20]; 39.6% under setting [21]; 44.3% under setting [22]; 30.3% under setting [23]. The viability, T/C runs as follows: under setting [24], 68.4%; under setting [25], 56.4%; under setting [26], 55.8%; under setting [27], 44.8%; under setting [28], 42%; under setting [29], 31.4%. Also, the viability, T/C was 78.1% under setting [30]; 66.9% under setting [31]; 53.1% under setting [32]; 41.8% under setting [33]; 38.5% under setting [34]; 29.9% under setting [35].
Regarding `CC[C@@]1(O)C(=O)OCc2c1cc1n(c2=O)Cc2cc3c(CN(C)C)c(O)ccc3nc2-1` + NC1CC1c1ccc(-c2cccc(O)c2)cc1, the half-maximal inhibitory concentration (IC50) is 52.6 nM under setting [1]; 44.6 nM under setting [2]; 27.8 nM under setting [3]; more than 100 nM under setting [4]; 57 nM under setting [5]. Moreover, the viability, T/C (second compound 0.1 µM, first compound 0.000316 µM) was 93.2%; the viability, T/C (second compound 0.1 µM, first compound 0.001 µM) is 81.3%; the viability, T/C under setting [6] is 72.5%; the viability, T/C under setting [7] was 63.6%; the viability, T/C under setting [8] is 55.9%; the viability, T/C under setting [9] is 43.5%. Also, the viability, T/C was 83% (second compound 0.316 µM, first compound 0.000316 µM); 79.4% (second compound 0.316 µM, first compound 0.001 µM); 77.4% under setting [12]; 63.6% under setting [13]; 54.7% under setting [14]; 41.6% under setting [15]. In addition, the viability, T/C runs as follows: (second compound 1 µM, first compound 0.000316 µM) 76.6%; (second compound 1 µM, first compound 0.001 µM) 79.5%; under setting [18], 69.1%; under setting [19], 53.4%; under setting [20], 52.4%; under setting [21], 46.5%. Besides, the viability, T/C is, setting by setting: (second compound 3.16 µM, first compound 0.000316 µM) 84.9%; (second compound 3.16 µM, first compound 0.001 µM) 75.5%; under setting [24], 66%; under setting [25], 59.2%; under setting [26], 54.3%; under setting [27], 50.5%. Besides, the viability, T/C by setting is: (second compound 10 µM, first compound 0.000316 µM) 74.7%; (second compound 10 µM, first compound 0.001 µM) 78.9%; under setting [30], 62.1%; under setting [31], 58.2%; under setting [32], 54.1%; under setting [33], 47.3%.
